In patent EP4553077A1 (Kinoteck Therapeutics Co., Ltd, priority 2022, dated 2024):

What follows are molecules tested against Ba/F3-TEL-FGFR2 (Homo sapiens, UniProt P21802+P41212) (assay: Cell viability (proliferation inhibition) of Ba/F3 cells, CellTiter Glo). Conditions: read-out: Ba/F3 cell FGFR2 (IC50 nM), 72 h.
Ba/F3-TEL-FGFR2, sequence (P21802 481-770 limits assumed, one chain of several): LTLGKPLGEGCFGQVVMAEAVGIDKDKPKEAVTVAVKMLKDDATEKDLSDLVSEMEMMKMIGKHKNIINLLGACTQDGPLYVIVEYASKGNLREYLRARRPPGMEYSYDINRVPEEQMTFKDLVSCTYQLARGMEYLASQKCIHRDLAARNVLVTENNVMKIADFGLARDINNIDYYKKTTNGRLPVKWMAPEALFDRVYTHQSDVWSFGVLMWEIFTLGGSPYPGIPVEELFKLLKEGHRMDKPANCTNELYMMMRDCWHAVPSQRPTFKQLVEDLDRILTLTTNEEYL

| SMILES | IC50 |
| --- | --- |
| C=C(C)C(=O)Nc1ccc(-c2c(-c3ccc(N=S4(=O)CC5(CC5)C4)cc3)c3c(N)ncnc3n2C)c(F)c1 [Compound 72] | 2.2 nM |
| C=C(C)C(=O)Nc1ccc(-c2c(-c3ccc(N=S4(=O)CCCC4)c(F)c3)c3c(N)ncnc3n2C)c(C#N)c1 [Compound 25, N-(4-(4-amino-5-(3-fluoro-4-((1-oxotetrahydro-1 λ^6-thiophene-1-ylidene)amino)phenyl) -7-methyl-7H-pyrrolo [2,3-d]pyrimidin-6-yl) -3-cyanophenyl) methacrylamide] | 38.7 nM |
| [2H]c1cc(-c2c(-c3ccc(NC(=O)C(=C)C)cc3F)n(C)c3ncnc(N)c23)cc([2H])c1N=S1(=O)CCCC1 [Compound 113] | 1.8 nM |
| CC#CC(=O)Nc1ccc(-c2c(-c3ccc(N=S4(=O)CCCC4)cc3)c3c(N)ncnc3n2C)c(F)c1 [Compound 112, N-(4-(4-amino-7-methyl-5-(4-((1-tetrahydro-1λ^6-thiophene-1-ylidene)amino)phenyl) -7H-pyrrolo [2,3-d]pyrimidin-6-yl) -3-fluorophenyl) but-2-ynamide] | 2 nM |
| C=C(COC)C(=O)Nc1ccc(-c2c(-c3ccc(N=S4(=O)CCCC4)c(F)c3)c3c(N)ncnc3n2C)cc1 [Compound 18, N-(4-(4-amino-5-(3-fluoro-4-((1-oxotetrahydro-1 λ^6-thiophene-1-ylidene)amino)phenyl) -7-methyl-7H-pyrrolo [2,3-d]pyrimidin-6-yl)phenyl) -2-(methoxymethyl) acrylamide] | 21.5 nM |
| C=CC(=O)Nc1ccc(-c2c(-c3ccc(N=S4(=O)CCCC4)cc3)c3c(N)ncnc3n2C)c(F)c1 [Compound 110] | 2 nM |
| C=C(C)C(=O)Nc1ccc(-c2c(-c3ccc(N=S(C)(=O)C4CCC4)cc3)c3c(N)ncnc3n2C)c(F)c1 (stereo not drawn) [Compound 50, N-(4-(4-amino-5-(4-((cyclobutyl (methyl) (oxo) - λ^6-sulfanylidene)amino)phenyl) -7-methyl-7H-pyrrole [2,3-d]pyrimidin-6-yl) -3-fluorophenyl) methacrylamide] | 7.6 nM |
| C=C(C)C(=O)Nc1ccc(-c2c(-c3ccc(N=S(=O)(N(C)CC)C(F)(F)F)cc3)c3c(N)ncnc3n2C)cc1 (stereo not drawn) [Compound 54, N-(4-(4-amino-5-(4-(((ethyl (methyl)amino) (oxo) (trifluoromethyl) -λ^6-sulfanylidene)amino)phenyl) -7-methyl-7H-pyrrolo [2,3-d]pyrimidin-6-yl)phenyl) methacrylamide] | 2.8 nM |
| C=CC(=O)Nc1ccc(-c2c(-c3ccc(N=S4(=O)CCCCC4)c(F)c3)c3c(N)ncnc3n2C)cc1 [Compound 13, N-(4-(4-amino-5-(3-fluoro-4-((1-oxotetrahydro-2H-1 λ^6-thiopyran-1-ylidene)amino)phenyl) -7-methyl-7H-pyrrolo [2,3-d]pyrimidin-6-yl)phenyl) acrylamide] | 0.6 nM |
| C=C(C)C(=O)Nc1ccc(-c2c(-c3ccc(N=S4(=O)CCCC4)c(OC)c3)c3c(N)ncnc3n2C)c(F)c1 [Compound 80, N-(4-(4-amino-5-(3-methoxy-4-((1-hydroperoxid-1λ^6-thiophene-1-ylidene)amino)phenyl)-7-methyl-7H-pyrrolo[2,3-d]pyrimidin-6-yl)-3-fluorophenyl) methacrylamide] | 46 nM |
| C=C(C)C(=O)Nc1ccc(F)c(-c2c(-c3ccc(N=S(=O)(N(C)C)C(F)(F)F)cc3)c3c(N)ncnc3n2C)c1 (stereo not drawn) [Compound 39] | 10.2 nM |
| C=C(C)C(=O)Nc1ccc(-c2c(-c3ccc(N=S(=O)(CC)CC)cc3)c3c(N)ncnc3n2CCOC)c(F)c1 [Compound 86] | 67.4 nM |
| [2H]C([2H])([2H])n1c(-c2ccc(NC(=O)C(=C)C)cc2F)c(-c2ccc(N=S(C)(=O)c3ccccc3)c(F)c2)c2c(N)ncnc21 (stereo not drawn) [Compound 96, N-(4-(4-amino-5-(3-fluoro-4-((methyl (oxo) (phenyl) - λ^6-sulfaneylidene)amino)phenyl) -7-(methyl-d3) -7H-pyrrolo [2,3-d]pyrimidin-6-yl) -3-fluorophenyl) methacrylamide] | 29.8 nM |
| C=C(C)C(=O)Nc1ccc(-c2c(-c3ccc(N=S(=O)(C4CC4)C4CC4)cc3)c3c(N)ncnc3n2C)cc1 [Compound 93, N-(4-(4-amino-5-(4-((dicyclopropyl (oxo)-λ^6-sulfaneylidene)amino)phenyl)-7-methyl-7H-pyrrolo [2,3-d]pyrimidin-6-yl)phenyl) methacrylamide] | 31.7 nM |
| C=C(C)C(=O)Nc1ccc(-c2c(-c3ccc(N=S4(=O)CCOCC4)c(F)c3)c3c(N)ncnc3n2C)cc1 [Compound 41] | 124 nM |
| C=C(C)C(=O)Nc1ccc(-c2c(-c3ccc(N=S4(=O)CCN(C)CC4)c(F)c3)c3c(N)ncnc3n2C)cc1 [Compound 30, N-(4-(4-amino-5-(3-fluoro-4-((4-methyl-1-oxo-1 λ^6-thiomorpholin-1-ylidene)amino)phenyl) -7-methyl-7H-pyrrolo [2,3-d]pyrimidin-6-yl)phenyl) methacrylamide] | 1440 nM |
| C=C(C)C(=O)Nc1ccc(-c2c(-c3ccc(N=S(=O)(CC)CC)cc3F)c3c(N)ncnc3n2C)c(F)c1 [Compound 85] | 907 nM |

| SMILES | IC50 |
| --- | --- |
| C=C(C)C(=O)Nc1ccc(-c2c(-c3ccc(N=S4(=O)CCCCC4)c(OC)c3)c3c(N)ncnc3n2C)c(F)c1 [Compound 5, N-(4-(4-amino-5-(3-methoxy-4-(1-oxotetrahydro-2H-1λ^6-thiopyran-1-imino)phenyl)-7-methyl-7H-pyrrolo [2,3-d]pyrimidin-6-yl)-3-fluorophenyl) methacrylamide] | 29.3 nM |
| C=C(C)C(=O)Nc1ccc(-c2c(-c3ccc(N=S4(=O)CCCC4)cc3)c3c(N)ncnc3n2CCN(C)C)c(F)c1 [Compound 78, N-(4-(4-amino-7-(2-(dimethylamino)ethyl) -5-(4-((1-hydroperoxide-1λ^6-thiophene-1-ylidene)amino)phenyl) -7H-pyrrolo [2,3-d]pyrimidin-6-yl) -3-fluorophenyl) methacrylamide] | 585 nM |
| C=C(C)C(=O)Nc1ccc(-c2c(-c3ccc(N=S(=O)(N(C)C)C(F)(F)F)cc3)c3c(N)ncnc3n2C)cc1 (stereo not drawn) [Compound 28] | 0.9 nM |
| CC#CC(=O)Nc1ccc(-c2c(-c3ccc(N=S(C)(C)=O)c(F)c3)c3c(N)ncnc3n2C)cc1C(C)(C)O [Compound 20] | 86.7 nM |
| C=C(C)C(=O)Nc1ccc(-c2c(-c3ncc(N=S4(=O)CCCCC4)cc3F)c3c(N)ncnc3n2C)cc1 [Compound 36, N-(4-(4-amino-5-(3-fluoro-5-((1-oxotetrahydro-2H-1 λ^6-thiopyran-1-ylidene)amino)pyridin-2-yl) -7-methyl-7H-pyrrole [2,3-d]pyrimidin-6-yl)phenyl) methacrylamide] | 53.5 nM |
| C=C(C)C(=O)Nc1ccc(-c2c(-c3ccc(N=S(C)(C)=O)cc3)c3c(N)ncnc3n2C)cc1 [Compound 45] | 83.1 nM |
| C=C(C)C(=O)Nc1ccc(F)c(-c2c(-c3ccc(N=S4(=O)CCCCC4)c(F)c3)c3c(N)ncnc3n2C)c1 [Compound 12, N-(3-(4-amino-5-(3-fluoro-4-((1-oxotetrahydro-2H-1 λ^6-thiopyran-1-ylidene)amino)phenyl) -7-methyl-7H-pyrrolo [2,3-d]pyrimidin-6-yl) -4-fluorophenyl) methacrylamide] | 276 nM |
| C=C(C)C(=O)Nc1ccc(-c2c(-c3ccc(N=S4(=O)CCCC4)cc3F)c3c(N)ncnc3n2C)c(F)c1 [Compound 61, N-(4-(4-amino-5-(2-fluoro-4-((1-oxotetrahydro-1λ^6-thiophene-1-ylidene)amino)phenyl)-7-methyl-7H-pyrrolo[2,3-d]pyrimidin-6-yl)-3-fluorophenyl) methacrylamide] | 150 nM |
| C=C(C)C(=O)Nc1ccc(-c2c(-c3ccc(N=S4(=O)CCCCC4)c(F)c3)c3c(N)ncnc3n2C)c(OC)c1 [Compound 14, N-(4-(4-amino-5-(3-fluoro-4-((1-oxotetrahydro-2H-1 λ^6-thiopyran-1-ylidene)amino)phenyl)-7-methyl-7H-pyrrolo[2,3-d]pyrimidin-6-yl)-3-methoxyphenyl) methacrylamide] | 9.9 nM |
| C/C=C/C(=O)Nc1ccc(-c2c(-c3ccc(N=S4(=O)CCCCC4)c(F)c3)c3c(N)ncnc3n2C)cc1 [Compound 15, (E)-N-(4-(4-amino-5-(3-fluoro-4-((1-oxotetrahydro-2H-1λ^6-thiopyran-1-ylidene)amino)phenyl)-7-methyl-7H-pyrrolo [2,3-d]pyrimidin-6-yl) -phenyl)-2-butenamide] | 15.4 nM |
| C=C(F)C(=O)Nc1ccc(-c2c(-c3ccc(N=S4(=O)CCCC4)cc3)c3c(N)ncnc3n2C)c(F)c1 [Compound 111] | < 0.15 nM |
| C=C(C)C(=O)Nc1ccc(-c2c(-c3ccc(N=S4(=O)CCCCC4)c(C)c3)c3c(N)ncnc3n2C)cc1 [Compound 34, N-(4-(4-amino-7-methyl-5-(3-methyl-4-((1-oxotetrahydro-2H-1λ^6-thiopyran-1-ylidene)amino)phenyl) -7H-pyrrolo [2,3-d]pyrimidin-6-yl)phenyl) methacrylamide] | 17.9 nM |
| C=C(C)C(=O)Nc1ccc(-c2c(-c3ccc(N=S4(=O)CCCCC4)c(F)c3)c3c(N)ncnc3n2C)cc1F [Compound 37, N-(4-(4-amino-5-(3-fluoro-4-((1-oxotetrahydro-2H-1 λ^6-thiopyran-1-ylidene)amino)phenyl) -7-methyl-7H-pyrrolo [2,3-d]pyrimidin-6-yl) -2-fluorophenyl) methacrylamide] | 32 nM |
| C=C(C)C(=O)Nc1ccc(-c2c(-c3ccc(N=S4(=O)CC(C)(C)C4)c(F)c3)c3c(N)ncnc3n2C)c(F)c1 [Compound 106, N-(4-(4-amino-5-(4-((3,3-dimethyl-1-oxo-1 λ^6-thiocyclobutan-1-ylidene)amino) -3-fluorophenyl) -7-methyl-7H-pyrrolo [2,3-d]pyrimidin-6-yl) -3-fluorophenyl) methacrylamide] | 2.2 nM |
| C=C(C)C(=O)Nc1ccc(-c2c(-c3ccc(N=S4(=O)CCOCC4)cc3)c3c(N)ncnc3n2C)c(F)c1 [Compound 105] | 20.9 nM |
| C=C(C)C(=O)Nc1ccc(-c2c(-c3ccc(N=S4(=O)CCCCC4)nc3)c3c(N)ncnc3n2C)cc1 [Compound 17, N-[4-(4-amino-7-methyl-5-(6-((1-oxotetrahydro-2H-1 λ^6-thiopyran-1-ylidene)amino)pyridin-3-yl)pyrrolo [2,3-d]pyrimidin-6-yl)phenyl) methacrylamide] | 4620 nM |
